Measurements reported in patent US20090131441A1, “Metabolites Of 2-Arylpropionic Acid Derivatives And Pharmaceutical Compositions Containing Them” (DOMPE phar.r.ma S.p.A., priority 2005, published 2009).

Experiments:
[1] = in vitro binding to rat plasma proteins; assay type: in vitro ADME; conditions: compound concentration 10 μg/mL, read-out: Protein Binding (converted)
Description: (§1) Table I and II show, as an example, the significant differences in T1/2 and protein binding (%) between metabolites of formula (I) and corresponding parent compounds of formula (III).

[2] = T1/2 after single bolus i.v. administration in rat; conditions: in vivo, iv; after single bolus i.v. administration in rat (15 mg/Kg); read-out: T½ (converted)
Description: Furthermore, the compounds of formula (I) have a pharmacokinetic profile particularly advantageous for the therapeutic use. In fact, as compared to the compounds of formula (III), the compounds of the invention, administered “in vivo” by the i.v. route, show a longer T1/2 associated to a reduced clearance time.
as §1

[3] = test system: IL-8 induced chemotaxis of human PMNs; test: IL-8 induced PMN chemotaxis assay; assay type: cell-based; conditions: read-out: inhibition of IL-8-induced PMN migration
Description: The compounds of the invention of formula (I) were evaluated in vitro for their ability to inhibit chemotaxis of polymorphonucleate leukocytes (hereinafter referred to as PMNs) and monocytes induced by the fractions of IL-8 and GRO-α and C5a and directly compared to the corresponding parent 4-isobutyl compounds of formula (III). For this purpose, in order to isolate the PMNs from heparinized human blood, taken from healthy adult volunteers, mononucleates were removed by means of sedimentation on dextran (according to the procedure disclosed by W. J. Ming et al., J. Immunol., 138, 1469, 1987) and red blood cells by a hypotonic solution. The cell vitality was calculated by exclusion with Trypan blue, whilst the ratio of the circulating polymorphonucleates was estimated on the cytocentrifugate after staining with Diff Quick. […]
The compounds of the invention in formula (I) were evaluated at a concentration ranging between 10^−6 and 10^−10 M; for this purpose they were added, at the same concentration, both to the lower pores and the upper pores of the microchamber. […]

SMILES | fraction unbound at 10 μg/mL [1] | half-life [2] [h] | inhibition at 1 µM ([3]; compound concentration 10^−6M) [%] | inhibition at 0.01 µM ([3]; compound concentration 10^−8M) [%]
CC(C)Cc1ccc([C@@H](C)C(=O)NCCCN2CCCCC2)cc1 [(R)-2-[(4-isobutyl)phenyl]-N-[3″-(N′-piperidino)propyl]propionamide, reference compound] | 0.2 | 1 |  | 
CC(C)Cc1ccc([C@@H](C)C(=O)NS(C)(=O)=O)cc1 [(R)-2-[(4-isobutyl)phenyl]propionyl methanesulfonamide, reference compound] | < 0.01 | 0.5 |  | 
CC(Cc1ccc([C@@H](C)C(=O)NS(C)(=O)=O)cc1)C(=O)O (stereo partly drawn) [Example 1, (2R) (2″ R, S) 2-[4′-(2″-carboxyprop-1-yl)phenyl]propionyl methanesulfonamide] | 0.28 | 2 | 66 ± 8 | 49 ± 9
CC(Cc1ccc([C@@H](C)C(=O)NCCCN2CCCCC2)cc1)C(=O)O (stereo partly shown) [Example 4] | 0.3 | 2 |  | 
